# Results taken from US20220041641A1, “QUATERNARY AMMONIUM SALTS AS INHIBITORS OF TRIMETHYLAMINE PRODUCTION” (Senda Biosciences, Inc., priority 2018, published 2022).
# Structures can show the parent of a compound that is named as a salt. Where two headings read alike, the source gives them in different places.
# Legend:
# CutC/D enzyme = test: Acute mouse model (plasma TMAO on choline diet); assay type: in vivo, male C57BL/6 mice
# Experimental: The following acute mouse model may be used to determine inhibition of the CutC/D enzyme and thus the inhibition of the formation of trimethylamine (TMA) from choline.
# On day 1, male C57BL/6 mice were given a chemically defined diet (Tekland Global Rodent Diet 2018) containing 1.0% choline (g/g) for the duration of the experiment. Concurrently on day 1, mice were orally gavaged with 200 μL of compounds of interest (formulated in water). Mice were orally gavaged with the compounds and vehicle control again on day 2 and day 3 at a fixed time. Twenty hours after the last gavage, mice were sacrificed, and plasma was collected and prepared for detection of trimethylamine-N-oxide (TMAO) via liquid chromatography with on-line tandem mass spectrometry (LC-MS/MS). Food consumption and mouse weight were measured each day.
# Plasma samples were prepared for LCMS as follows: An aliquot of 20 μL plasma sample was protein precipitated with 200 μL internal standard solution (100 ng/mL Labetalol & 100 ng/mL Tolbutamide & 100 ng/mL Diclofenac in acetonitrile, the mixture was vortex-mixed and centrifuged at 4000 rpm for 15 min, 4° C. An aliquot of 100 μL supernatant was transferred to the sample plate for LCMS injection. 1 μL of sample was injected onto an LC column for TMAO LCMS analysis.
# Concentrations of TMAO were determined with a calibration curve ranging 0.05-100 μM for d9-TMAO in control plasma.
# [1] = target: CutC from Proteus mirabilis (Proteus mirabilis, UniProt B4EYG1); test: Cell-based assay for TMA production from a native producer (P. mirabilis)
# Excerpt: In each bacterium, CutC was modified into its activated form by a cognate activating enzyme, CutD (protein EDU36696.1 for C. sporogenes; protein WP_004249185.1 for P. mirabilis). […] Trimethylamine may subsequently be converted by human enzymes such as flavin monooxygenase 3 to trimethylamine N-oxide, which might be associated with negative health consequences in humans.
# A compound's ability to inhibit CutC from Proteus mirabilis and C. sporogenes from converting choline into trimethylamine was tested in cells as described. A BHI blood plate was inoculated with a frozen stock of Proteus mirabilis or Clostridium sporogenes under anaerobic conditions. A single colony was isolated from the plate and inoculated into 5 mL BHI supplemented with 1 mM choline under anaerobic conditions. The liquid cultures were grown overnight at 37° C.
# To prepare each sample, 300 μL of the saturated culture was then inoculated into a 30 mL dilution blank under anaerobic conditions. 1 mM (trimethyl-d9)-choline and a sufficient amount of a compound to obtain a final concentration of 10 μM were added to the inoculated dilution blank. […] The mixture was incubated at 37° C. for 5 h. […] After centrifugation, the samples were analyzed by LCMS to determine the amount of d9-TMA produced.
# [2] = Table 4d, 100 mg/kg oral gavage days 1-3
# [3] = Table 4d, 100 mg/kg oral gavage days 1-3, plasma 20 h after last gavage
# [4] = d9-TMA from 1 mM d9-choline, 5 h, 37° C.; value 10 given when no fit or % TMA remaining at 10 μM higher than 15%; read-out: Average IC50 Whole cell P. mirabilis
# [5] = read-out: Average IC50 Whole cell P. mirabilis; d9-TMA from 1 mM d9-choline, 5 h, 37° C.; value 10 given when no fit or % TMA remaining at 10 μM higher than 15%
# Chain of CutC from Proteus mirabilis (B4EYG1 entry or part of it): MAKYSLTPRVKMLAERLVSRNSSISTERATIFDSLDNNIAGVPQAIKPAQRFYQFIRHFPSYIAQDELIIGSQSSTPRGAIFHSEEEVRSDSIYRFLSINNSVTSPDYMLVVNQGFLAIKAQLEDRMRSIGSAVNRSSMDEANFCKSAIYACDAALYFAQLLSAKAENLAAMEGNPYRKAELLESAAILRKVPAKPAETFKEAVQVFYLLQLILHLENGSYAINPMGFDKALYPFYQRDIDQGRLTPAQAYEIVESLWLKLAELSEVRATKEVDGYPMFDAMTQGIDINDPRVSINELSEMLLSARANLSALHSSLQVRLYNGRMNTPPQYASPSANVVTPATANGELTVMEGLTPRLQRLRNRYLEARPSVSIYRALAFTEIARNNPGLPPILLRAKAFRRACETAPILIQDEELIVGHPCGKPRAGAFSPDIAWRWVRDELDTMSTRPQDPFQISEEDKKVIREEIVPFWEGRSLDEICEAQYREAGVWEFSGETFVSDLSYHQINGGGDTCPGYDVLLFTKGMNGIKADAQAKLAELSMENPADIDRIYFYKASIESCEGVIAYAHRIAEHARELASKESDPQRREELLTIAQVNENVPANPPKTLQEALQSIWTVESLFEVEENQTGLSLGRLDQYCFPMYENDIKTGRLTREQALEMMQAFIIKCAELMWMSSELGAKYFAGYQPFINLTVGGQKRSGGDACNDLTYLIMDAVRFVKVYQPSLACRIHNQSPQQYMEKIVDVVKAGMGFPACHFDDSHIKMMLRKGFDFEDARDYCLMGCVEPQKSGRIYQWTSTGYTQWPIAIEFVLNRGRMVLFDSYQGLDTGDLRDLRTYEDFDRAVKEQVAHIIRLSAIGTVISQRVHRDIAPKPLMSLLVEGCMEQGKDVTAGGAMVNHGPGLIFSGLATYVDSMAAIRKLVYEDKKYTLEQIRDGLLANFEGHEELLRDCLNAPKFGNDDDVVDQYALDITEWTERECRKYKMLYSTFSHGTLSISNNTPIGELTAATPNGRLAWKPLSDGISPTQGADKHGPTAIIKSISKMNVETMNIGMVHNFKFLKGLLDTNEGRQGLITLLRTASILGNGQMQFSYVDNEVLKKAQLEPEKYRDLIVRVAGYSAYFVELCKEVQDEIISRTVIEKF
# Chain of CutC from Proteus mirabilis (B4EYG0 entry or part of it, further chain): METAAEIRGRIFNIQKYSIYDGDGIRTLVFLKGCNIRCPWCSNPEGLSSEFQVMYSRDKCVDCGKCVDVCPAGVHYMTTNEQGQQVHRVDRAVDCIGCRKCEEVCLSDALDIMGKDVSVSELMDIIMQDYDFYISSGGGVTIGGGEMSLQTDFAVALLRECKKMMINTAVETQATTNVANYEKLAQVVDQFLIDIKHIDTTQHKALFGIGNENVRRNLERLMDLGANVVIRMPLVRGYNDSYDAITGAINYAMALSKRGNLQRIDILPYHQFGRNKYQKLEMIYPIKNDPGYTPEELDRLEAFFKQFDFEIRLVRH
Compound,"IC50 [1, 4] [nM]",other results
"C#CC[N+](C)(C)CCOC1OC[C@@H](OC(C)=O)[C@@H](OC(C)=O)[C@H]1OC(C)=O.[Br-] (stereo partly drawn) [Compound 9, N,N-dimethyl-N-(2-(((3R,4R,5R)-3,4,5-triacetoxytetrahydro-2H-pyran-2-yl)oxy)ethyl)prop-2-yn-1-aminium bromide]",–,% change from vehicle control + choline diet (CutC/D enzyme; [2]): 80%; Mean plasma TMAO (CutC/D enzyme; [3]): 33.91 µM
"C#CC[N+](C)(C)CCO[C@@H]1OC[C@H](OC(C)=O)[C@H](OC(C)=O)[C@H]1OC(C)=O.[I-] [Compound 10, N,N-dimethyl-N-(2-(((3R,4S,5S)-3,4,5-triacetoxytetrahydro-2H-pyran-2-yl)oxy)ethyl)prop-2-yn-1-aminium Iodide]",–,% change from vehicle control + choline diet (CutC/D enzyme; [2]): −21%; Mean plasma TMAO (CutC/D enzyme; [3]): 14.9 µM
"C#CC[N+](C)(C)CC(=O)O[C@H]1O[C@H](COC(C)=O)[C@@H](OC(C)=O)[C@H](OC(C)=O)[C@H]1OC(C)=O.O=C([O-])C(F)(F)F [Compound 19, N,N-dimethyl-N-(2-oxo-2-(((2R,3R,4S,5R,6R)-3,4,5-triacetoxy-6-(acetoxymethyl)tetrahydro-2H-pyran-2-yl)oxy)ethyl)prop-2-yn-1-aminium trifluoroacetate]",1730,"% change from vehicle control + choline diet (CutC/D enzyme; Table 4a, 333 mg/kg oral gavage days 1-3): −84.29%; Mean plasma TMAO (CutC/D enzyme; Table 4a, 333 mg/kg oral gavage days 1-3, plasma 20 h after last gavage): 5.40 µM"
"C#CC[N+](C)(C)CCCCOC1O[C@@H](C)[C@@H](OC(=O)CCC)[C@@H](OC(=O)CCC)[C@@H]1OC(=O)CCC.[Br-] (stereo partly drawn) [Compound 58, N,N-dimethyl-N-(prop-2-yn-1-yl)-4-(((3S,4R,5R,6S)-3,4,5-tris(butyryloxy)-6-methyltetrahydro-2H-pyran-2-yl)oxy)butan-1-aminium bromide]",–,"% change from vehicle control + choline diet (CutC/D enzyme; Table 4d, 10 mg/kg oral gavage days 1-3): −46%; Mean plasma TMAO (CutC/D enzyme; Table 4d, 10 mg/kg oral gavage days 1-3, plasma 20 h after last gavage): 10.1 µM"
"C[N+]1(CF)CCC[C@@H]1CO (stereo partly drawn) [Compound 151, (2R)-1-(fluoromethyl)-2-(hydroxymethyl)-1-methylpyrrolidin-1-ium Iodide]",890,"% change from vehicle control + choline diet (CutC/D enzyme; Table 4g, 116 mg/kg oral gavage days 1-3): 6%; Mean plasma TMAO (CutC/D enzyme; Table 4g, 116 mg/kg oral gavage days 1-3, plasma 20 h after last gavage): 29.4 µM"
"C#CC[N+](C)(C)CC(=C)Cl.[Cl-] [Compound 185, (2-chloroprop-2-en-1-yl)dimethyl(prop-2-yn-1-yl)azanium Chloride]",235,"% change from vehicle control + choline diet (CutC/D enzyme; Table 4e, 123.7 mg/kg oral gavage days 1-3): −16%; Mean plasma TMAO (CutC/D enzyme; Table 4e, 123.7 mg/kg oral gavage days 1-3, plasma 20 h after last gavage): 22.2 µM"
"C#CC[N+](C)(C)CCP(=O)(OCC)OCC [Compound 202, diethyl {2-[dimethyl(prop-2-yn-1-yl)azaniumyl]ethyl}phosphonate Bromide]",–,"IC50 [1, 5]: 242 nM"
"C=CC[N+](C)(C)CC(=C)C(=O)OC [Compound 203, N-allyl-2-(methoxycarbonyl)-N,N-dimethylprop-2-en-1-aminium 2,2,2-trifluoroacetate]",1720,–
"C#CC[N+](C)(C)CCC [Compound 204, dimethyl(prop-2-yn-1-yl)propylazanium Iodide]",660,–
"C#CC[N+]1(CF)CCC[C@H]1CO (stereo partly drawn) [Compound 205, (2S)-1-(fluoromethyl)-2-(hydroxymethyl)-1-(prop-2-yn-1-yl)pyrrolidin-1-ium Iodide]",8300,–
"C#CC[N+](C)(C)CC [Compound 206, ethyldimethyl(prop-2-yn-1-yl)azanium Iodide]",69,–
"C#CC[N+](C)(C)Cc1ncco1 [Compound 207, dimethyl[(1,3-oxazol-2-yl)methyl](prop-2-yn-1-yl)azanium Chloride]",310,–
"C#CC[N+](C)(C)CC(=C)C [Compound 208, N,N,2-trimethyl-N-(prop-2-yn-1-yl)prop-2-en-1-aminium 2,2,2-trifluoroacetate]",> 10000,–
"C#CC[N+](C)(C)CC(=C)F [Compound 209, 2-fluoro-N,N-dimethyl-N-(prop-2-yn-1-yl)prop-2-en-1-aminium 2,2,2-trifluoroacetate]",6800,–
"C#CC[N+](C)(C)CCP(=O)(O)O [Compound 210, {2-[dimethyl(prop-2-yn-1-yl)azaniumyl]ethyl}phosphonic Acid]",–,"IC50 [1, 5]: > 10000 nM"
"C#CC[N+](C)(C)CC=C [Compound 211, N,N-dimethyl-N-(prop-2-yn-1-yl)prop-2-en-1-aminium 2,2,2-trifluoroacetate]",211,–
"COC[N+](C)(C)CCO [Compound 212, (2-hydroxyethyl)(methoxymethyl)dimethylazanium trifluoroacetate]",1990,–
"CC[N+](C)(CF)CCO (stereo not drawn) [Compound 213, ethyl(fluoromethyl)(2-hydroxyethyl)(methyl)azanium Iodide]",180,–

Compound,"IC50 [1, 4] [nM]",other results
"C#CC[N+]1(CF)CC[C@@H](O)C1 (stereo partly drawn) [Compound 214, (3R)-1-(fluoromethyl)-3-hydroxy-1-(prop-2-yn-1-yl)pyrrolidin-1-ium]",3870,–
"C#CC[N+](C)(C)CCC(=O)NS(C)(=O)=O [Compound 215, [2-(methanesulfonylcarbamoyl)ethyl]dimethyl(prop-2-yn-1-yl)azanium]",409,–
"C#CC[N+](C)(C)CC(=O)NS(C)(=O)=O [Compound 216, [(methanesulfonylcarbamoyl)methyl]dimethyl(prop-2-yn-1-yl)azanium]",> 10000,–
"C#CC[N+](C)(C)CC(=C)Br [Compound 217, (2-bromoprop-2-en-1-yl)dimethyl(prop-2-yn-1-yl)azanium]",771,–
"C[N+]1(C)CCOC(O)(C(F)(F)F)C1 (stereo not drawn) [Compound 218, 2-hydroxy-4,4-dimethyl-2-(trifluoromethyl)morpholin-4-ium trifluoroacetate]",> 10000,–
"C[N+](C)(CCO)C1COC1 [Compound 219, N-(2-hydroxyethyl)-N,N-dimethyloxetan-3-aminium trifluoroacetate]",> 10000,–
"C[N+]1(C)CCOCC1CO (stereo not drawn) [Compound 220, 3-(hydroxymethyl)-4,4-dimethylmorpholin-4-ium]",> 10000,–
"C#CC[N+](C)(C)CCS(=O)(=O)O [Compound 221, dimethyl(prop-2-yn-1-yl)(2-sulfoethyl)azanium Trifluoroacetate]",> 10000,–
"C#CC[N+](C)(C)CCCB(O)O [Compound 222, {3-[dimethyl(prop-2-yn-1-yl)azaniumyl]propyl}boronic Acid]",> 10000,–
"C#CC[N+](C)(CC#C)CCS(=O)(=O)O [Compound 223, methylbis(prop-2-yn-1-yl)(2-sulfoethyl)azanium]",2280,–
C#CC[N+](C)(C)Cc1ncno1 [Compound 224],223,–
CCC[N+](C)(CF)CCO (stereo not drawn) [Compound 225],629,–
C#CC1CCC[N+]1(C)C (stereo not drawn) [Compound 226],244,–
"C#CC[N+](C)(C)CC[PH](=O)O [Compound 227, {2-[dimethyl(prop-2-yn-1-yl)azaniumyl]ethyl}phosphinic Acid]",–,"IC50 [1, 5]: > 10000 nM"
"COCC[N+](C)(C)CF [Compound 228, (fluoromethyl)(2-methoxyethyl)dimethylazanium Iodide]",> 10000,–
"CSCC[N+](C)(C)CF [Compound 229, (fluoromethyl)dimethyl[2-(methylsulfanyl)ethyl]azanium]",> 100000,–
"CC(=O)OC[C@H]1OC(OCC[N+](C)(C)C2CC2)[C@H](OC(C)=O)[C@@H](OC(C)=O)[C@@H]1OC(C)=O.[I-] (stereo partly drawn) [Compound 312, N,N-dimethyl-N-(2-(((3R,4S,5R,6R)-3,4,5-triacetoxy-6-(acetoxymethyl)tetrahydro-2H-pyran-2-yl)oxy)ethyl)cyclopropanaminium iodide]",–,"% change from vehicle control + choline diet (CutC/D enzyme; Table 4d, 35.4 mg/kg oral gavage days 1-3): −38%; Mean plasma TMAO (CutC/D enzyme; Table 4d, 35.4 mg/kg oral gavage days 1-3, plasma 20 h after last gavage): 11.69 µM"
